{"source": "paper PMC3945819", "about": "“Ligand-Dependent Dynamics of the Active-Site Lid in Bacterial Dimethylarginine Dimethylaminohydrolase” (Biochemistry, 2014)", "key": {"[1]": {"target": "T1, MDCC-Ser20Cys TM-PaDDAH (fl-TM-PaDDAH) (Pseudomonas aeruginosa, UniProt Q9I4E3, C249S/R40E/R98H/S20C)", "T1 construct": "polyhistidine (cleaved yes); made in house; host or cells: Escherichia coli BL21 (DE3)", "T1 sequence (Q9I4E3 1-254 S20C/R40E/R98H/C249S)": "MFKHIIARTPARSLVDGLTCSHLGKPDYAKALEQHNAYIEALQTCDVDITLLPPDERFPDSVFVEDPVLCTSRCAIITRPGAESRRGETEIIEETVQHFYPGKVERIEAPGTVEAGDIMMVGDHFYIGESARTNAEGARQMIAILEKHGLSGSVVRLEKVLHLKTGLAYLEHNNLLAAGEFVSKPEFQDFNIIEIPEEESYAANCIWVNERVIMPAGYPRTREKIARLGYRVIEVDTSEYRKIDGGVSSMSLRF", "experiment": "MDCC fluorescence titration, Ser20Cys variant", "format": "binding", "method": "(§1) DM- or TM-PaDDAH constructs were mutated to contain an additional, solvent-exposed Cys residue at residue positions corresponding to Thr19, Ser 20, Ser84, and Asp244. Following expression, the purified proteins were each incubated in buffer A with 1 mM dithiothreitol (DTT) for 0.5 h. The sample was then passed through a desalting PD-10 column (GE Healthcare) in buffer A and concentrated to 100 μM. N-[2-(1-Maleimidyl)ethyl]-7-(diethylamino)coumarin-3-carboxamide (MDCC)[32] dissolved in DMF (20 mM) was added to a 2-fold excess, and the solution was incubated for 1 h. The reaction mixture was passed again through a fresh desalting column to remove unreacted label. The labeled protein concentration was measured by spectrophotometry (ε430 (MDCC) = 46 800 M^–1 cm^–1, ε280(MDCC) = 7470 M^–1 cm^–1, ε280(PaDDAH) = 18 910 M^–1 cm^–1). Formation of the product was assessed by electrospray ionization mass spectrometry.\n(§2) PaDDAH fluorescence spectra were measured at 25 °C on an FP-6300 spectrofluorometer (Jasco Ltd.) in buffer A. MDCC fluorescence was excited at 430 nm and emission was recorded at 476 nm. The change in fluorescence emission intensity with ligand concentration was fit to a 1:1 binding isotherm using nonlinear least-squares Python code written in-house."}, "[2]": {"target": "T2, MDCC-Ser20Cys DM-PaDDAH (fl-DM-PaDDAH) (Pseudomonas aeruginosa, UniProt Q9I4E3, R40E/R98H/S20C)", "T2 construct": "the 254 residue DM-PaDDAH; polyhistidine (cleaved yes); made in house; host or cells: Escherichia coli BL21 (DE3)", "T2 sequence (Q9I4E3 1-254 S20C/R40E/R98H)": "T1 sequence (Q9I4E3 1-254 S20C/R40E/R98H/C249S) with S249C", "experiment": "Stopped-flow fluorescence binding kinetics with fl-DM-PaDDAH", "method": "(§3) Stopped-flow experiments were carried out in buffer A at 25 °C using a HiTech SF61 DX2 stopped-flow instrument equipped with a Xe/Hg lamp (TgK Scientific, UK). MDCC fluorescence was excited at 436 nm, and emission was detected by a photomultiplier after a 455 nm cutoff filter (Schott glass). Protein (1 μM) was mixed with the ligand (ADMA or L-citrulline) at various concentrations up to 4 mM. In the mixing cell, concentrations were half these. Each fluorescence time course was fitted to a single exponential function [drawing 1] with the observed first-order rate constant, kobs, and maximum fluorescence change, ΔFmax.\n(§4) For mixing L-citrulline with MDCC-Ser20Cys TM-PaDDAH (fl-TM-PaDDAH), the dependence of kobs on L-citrulline concentration ([L-cit]) was linearly fitted for the association reaction: [drawing 2] [drawing 3] For the mixing of L-citrulline with MDCC-Ser20Cys DM-PaDDAH (fl-DM-PaDDAH) conversion of the substrate to products is included, using this reaction scheme: [drawing 4] [drawing 5] where kcat is the rate constant for the conversion of the enzyme–substrate complex to dissociated products. Under the pseudo-first-order conditions of the experiment, where the change in fluorescence was attributed to the formation of the fl-DM-PaDDAH/ADMA complex, the dependence of kobs on ADMA concentration was fitted to a straight-line graph: [drawing 6]"}, "TM-PaDDAH": {"target": "T3, TM-PaDDAH (Pseudomonas aeruginosa, UniProt Q9I4E3, C249S/R40E/R98H)", "T3 construct": "polyhistidine (cleaved yes); made in house; host or cells: Escherichia coli BL21 (DE3)", "T3 sequence (Q9I4E3 1-254 R40E/R98H/C249S)": "T1 sequence (Q9I4E3 1-254 S20C/R40E/R98H/C249S) with C20S", "experiment": "Substrate conversion by TM-PaDDAH observed by 1D 1H NMR", "format": "biochemical", "conditions": "conversion of ADMA to DMA and L-citrulline, high TM-PaDDAH concentration, over hours", "method": "(§5) For NMR measurements, the protein samples were prepared at 0.8 mM concentration (for resonance assignments and relaxation measurements) or 0.3 mM (for ligand titrations) in buffer A, supplemented with 10% v/v D2O. Saturating concentrations of L-citrulline were included in the bound state samples: 15 mM for DM-PaDDAH and 1.0 mM for TM-PaDDAH. A variety of NMR spectrometers were used during this work: resonance assignments were obtained from 3D triple resonance data sets (HNCA, HNCACB, CBCACONH, HNCO, HN(CA)CO)[12] obtained at either 600 or 700 MHz ^1H frequency. Two-dimensional ^15N, ^1H-HSQC experiments to monitor ligand binding were recorded using a 700 MHz instrument. ^15N relaxation measurements[13],[14] were performed at both 600 and 800 MHz. The majority of the data sets were recorded using a cryogenically cooled triple resonance probe, with the sample temperature maintained at a calibrated 25 °C. The pulse sequences employed H2O-selective “flip-back” pulses and WATERGATE to minimize the effects of H^N-resonance cross-saturation.[15],[16] Ligand-induced chemical shift perturbations differences for ligand titrations were computed using the formula Δδ = [(Δδ^1H^N)^2 + (Δδ^15N/5)^2]^1/2."}, "unmodified DM-PaDDAH": {"system": "unmodified DM-PaDDAH", "conditions": "estimated previously for unmodified DM-PaDDAH; cited from earlier work"}, "[3]": {"target": "T4, DM-PaDDAH (Arg40Glu/Arg98His double mutant PaDDAH) (Pseudomonas aeruginosa, UniProt Q9I4E3, R40E/R98H)", "T4 construct": "the 254 residue DM-PaDDAH; polyhistidine (cleaved yes); made in house; host or cells: Escherichia coli BL21 (DE3)", "T4 sequence (Q9I4E3 1-254 R40E/R98H)": "T1 sequence (Q9I4E3 1-254 S20C/R40E/R98H/C249S) with C20S, S249C", "experiment": "NMR 15N,1H-HSQC ligand titration of DM-PaDDAH", "format": "binding", "conditions": "for binding of byproduct to the protein by NMR titration: separate NMR titrations", "method": "as §5"}, "[4]": {"target": "T5, TM-PaDDAH (Arg40Glu/Arg98His/Cys249Ser triple mutant PaDDAH) (Pseudomonas aeruginosa, UniProt Q9I4E3, C249S/R40E/R98H)", "T5 construct": "polyhistidine (cleaved yes); made in house; host or cells: Escherichia coli BL21 (DE3)", "T5 sequence (Q9I4E3 1-254 R40E/R98H/C249S)": "T1 sequence (Q9I4E3 1-254 S20C/R40E/R98H/C249S) with C20S", "experiment": "NMR 15N,1H-HSQC ligand titration of TM-PaDDAH", "format": "binding", "conditions": "NMR peak intensity titration (Gly24, Glu158, Lys159), 0.3 mM TM-PaDDAH, 25 °C; read-out: dissociation constant KD^(TM/L-cit)", "method": "as §5"}, "MDCC-Thr19Cys TM-PaDDAH": {"target": "T6, MDCC-Thr19Cys TM-PaDDAH (Pseudomonas aeruginosa, UniProt Q9I4E3, C249S/R40E/R98H/T19C)", "T6 construct": "polyhistidine (cleaved yes); made in house; host or cells: Escherichia coli BL21 (DE3)", "T6 sequence (Q9I4E3 1-254 T19C/R40E/R98H/C249S)": "T1 sequence (Q9I4E3 1-254 S20C/R40E/R98H/C249S) with T19C, C20S", "experiment": "MDCC fluorescence titration, Thr19Cys variant", "format": "binding", "conditions": "static MDCC fluorescence titration, 25 °C, buffer A; fluorescence decreased; read-out: equilibrium dissociation constant", "method": "as §1, §2"}, "MDCC-Ser84Cys TM-PaDDAH": {"target": "T7, MDCC-Ser84Cys TM-PaDDAH (Pseudomonas aeruginosa, UniProt Q9I4E3, C249S/R40E/R98H/S84C)", "T7 construct": "polyhistidine (cleaved yes); made in house; host or cells: Escherichia coli BL21 (DE3)", "T7 sequence (Q9I4E3 1-254 R40E/S84C/R98H/C249S)": "T1 sequence (Q9I4E3 1-254 S20C/R40E/R98H/C249S) with C20S, S84C", "experiment": "MDCC fluorescence titration, Ser84Cys variant", "format": "binding", "conditions": "static MDCC fluorescence titration, 25 °C, buffer A; fluorescence decreased; read-out: equilibrium dissociation constant", "method": "as §1, §2"}, "MDCC-Asp244Cys TM-PaDDAH": {"target": "T8, MDCC-Asp244Cys TM-PaDDAH (Pseudomonas aeruginosa, UniProt Q9I4E3, C249S/D244C/R40E/R98H)", "T8 construct": "polyhistidine (cleaved yes); made in house; host or cells: Escherichia coli BL21 (DE3)", "T8 sequence (Q9I4E3 1-254 R40E/R98H/D244C/C249S)": "T1 sequence (Q9I4E3 1-254 S20C/R40E/R98H/C249S) with C20S, D244C", "experiment": "MDCC fluorescence titration, Asp244Cys variant", "format": "binding", "conditions": "static MDCC fluorescence titration, 25 °C, buffer A; fluorescence decreased; read-out: equilibrium dissociation constant", "method": "as §1, §2"}, "[5]": {"target": "T1, MDCC-Ser20Cys TM-PaDDAH (fl-TM-PaDDAH)", "experiment": "Stopped-flow fluorescence binding kinetics with fl-TM-PaDDAH", "method": "as §3, §4"}, "wild-type PaDDAH": {"target": "wild-type PaDDAH", "conditions": "wild-type protein; read-out: Ki^(L-cit); cited from earlier work"}, "Cys249": {"target": "Cys249 (UniProt position 249, DGGVSCMSLRF)", "conditions": "ligand-free (absence of ligand); cited from earlier work"}}, "note": "Residue numbers refer to the chain shown, from its start. “Also recorded” adds a separate entry of the source."}
{"compound": "CN(C)C(=N)NCCCC(N)C(=O)O", "note": "(stereo not drawn) [ADMA, asymmetric N^η,N^η-dimethylarginine]", "values": [{"measurement": "fluorescence response / binding of substrate to fl-TM-PaDDAH", "setting": "[1]; low protein concentrations of fluorescence experiments", "result": "no fluorescence change; also recorded: no evidence of substrate binding or turnover"}, {"measurement": "binding tighter than for the reaction product L-citrulline", "setting": "[2]; KD^(DM/ADMA) versus KD^(DM/L-cit)", "result": 30, "unit": "fold"}, {"measurement": "koff^(DM/ADMA)", "setting": "[2]; assuming kcat = 0.5 s^–1", "result": 2.0, "unit": "s^–1"}, {"measurement": "kon^(DM/ADMA)", "setting": "[2]; stopped-flow, linear fit of kobs vs concentration, 25 °C", "result": "1.8 × 10^5 M^–1 s^–1"}, {"measurement": "catalytic activity of the mutant enzyme", "setting": "TM-PaDDAH", "result": "~0.04", "unit": "h^–1"}, {"measurement": "kcat", "setting": "unmodified DM-PaDDAH", "result": 0.5, "unit": "s^–1"}]}
{"compound": "NC(=O)NCCC[C@H](N)C(=O)O", "note": "[L-citrulline]", "values": [{"measurement": "Kd", "setting": "[3]; NMR chemical shift titration, 0.3 mM DM-PaDDAH, 1:1 model, buffer A pH 7.0, 25 °C, read-out: dissociation constant KD^(DM/L-cit)", "result": "3600 ± 100", "unit": "µM"}, {"measurement": "koff", "setting": "[3]; from NMR KD and assumed kon similar to kon^(TM/L-cit) and kon^(DM/ADMA), read-out: koff^(DM/L-cit) predicted", "result": "~500", "unit": "s⁻¹"}, {"measurement": "Kd", "setting": "[4]", "result": "3.5 ± 1.5", "unit": "µM"}, {"measurement": "Kd", "setting": "MDCC-Thr19Cys TM-PaDDAH", "result": "10.8 ± 1.1", "unit": "µM"}, {"measurement": "Kd", "setting": "[1]; static MDCC fluorescence titration, 25 °C, buffer A, fluorescence increased, read-out: equilibrium dissociation constant", "result": "7.2 ± 1.6", "unit": "µM"}, {"measurement": "Kd", "setting": "MDCC-Ser84Cys TM-PaDDAH", "result": "15.7 ± 2.8", "unit": "µM"}, {"measurement": "Kd", "setting": "MDCC-Asp244Cys TM-PaDDAH", "result": "23.5 ± 2.7", "unit": "µM"}, {"measurement": "Kd", "setting": "[5]; from stopped-flow binding kinetics, read-out: predicted equilibrium dissociation constant KD^(TM/L-cit) (= koff/kon)", "result": 8.4, "unit": "µM"}, {"measurement": "koff", "setting": "[5]; stopped-flow, linear fit of kobs vs concentration, 25 °C, read-out: koff^(TM/L-cit)", "result": 0.86, "unit": "s⁻¹"}, {"measurement": "kon", "setting": "[5]; stopped-flow, linear fit of kobs vs concentration, 25 °C, read-out: kon^(TM/L-cit)", "result": 100000, "unit": "M⁻¹ s⁻¹"}, {"measurement": "fluorescence signal for binding to fl-DM-PaDDAH", "setting": "[2]", "result": "no signal for binding"}, {"measurement": "Ki", "setting": "wild-type PaDDAH", "result": 8400, "unit": "µM"}]}
{"compound": "CNC", "note": "[dimethylamine]", "values": [{"measurement": "binding of byproduct to the protein by NMR titration", "setting": "[3]", "result": "did not detectably bind"}]}
{"compound": "CN", "note": "[methylamine]", "values": [{"measurement": "binding of byproduct to the protein by NMR titration", "setting": "[3]", "result": "did not detectably bind"}]}
{"compound": "Dimethylarginine dimethylaminohydrolase (PaDDAH) (Pseudomonas aeruginosa)", "values": [{"measurement": "pKa", "setting": "Cys249", "result": 8.8}]}
